Measurements taken from patent US20230017045A1, “PYRIDINE AND PYRIMIDINE CARBOXYLATE HERBICIDES AND METHODS OF USE THEREOF” (Dow AgroSciences LLC, priority 2017, published 2023).
Where two headings read alike, the source gives them in different places.

System: test plant species
Test: Post-emergent herbicidal activity test (greenhouse, foliar spray, visual growth reduction)
Assay type: in vivo
Conditions: post-emergence, 336 h, 140 g ai/ha
Summary of the method: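 Greenhouse plants at first–second true leaf stage sprayed overhead at 187 L/ha with compound in acetone/water/isopropanol/DMSO/crop oil/X-77 carrier; controls received solvent blank. Injury rated visually after 14 d on a 0–100% scale versus untreated and control plants, converted to growth reduction.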

[1] = ECHCG: barnyardgrass (Echinochloa crus-galli), 14 days after application, read-out: Visual Growth Reduction (%) 14 Days After Application, ECHCG
[2] = IPOHE: ivy-leaf morning glory (Ipomoea hederacea), 14 days after application, read-out: Visual Growth Reduction (%) 14 Days After Application, IPOHE
[3] = KCHSC: kochia (Bassia scoparia), 14 days after application, read-out: Visual Growth Reduction (%) 14 Days After Application, KCHSC
[4] = ORYSA: rice (Oryza sativa), 14 days after application, read-out: Visual Growth Reduction (%) 14 Days After Application, ORYSA
[5] = SETFA: giant foxtail (Setaria faberi), 14 days after application, read-out: Visual Growth Reduction (%) 14 Days After Application, SETFA
[6] = SORVU: grain sorghum (Sorghum vulgare), 14 days after application, read-out: Visual Growth Reduction (%) 14 Days After Application, SORVU
[7] = STEME: common chickweed (Stellaria media), 14 days after application, read-out: Visual Growth Reduction (%) 14 Days After Application, STEME
[8] = TRZAS: wheat, spring (Triticum aestivum), 14 days after application, read-out: Visual Growth Reduction (%) 14 Days After Application, TRZAS
[9] = blackgrass (Alopecurus myosuroides), 14 Days After Application, read-out: Visual Growth Reduction (%) ALOMY
[10] = canada thistle (Cirsium arvense), 14 Days After Application, read-out: Visual Growth Reduction (%) CIRAR
[11] = crabgrass (Digitaria sanguinalis), 14 Days After Application, read-out: Visual Growth Reduction (%) DIGSA
[12] = lambsquarters (Chenopodium album), 14 Days After Application, read-out: Visual Growth Reduction (%) CHEAL
[13] = redroot pigweed (Amaranthus retroflexus), 14 Days After Application, read-out: Visual Growth Reduction (%) AMARE
[14] = wild oat (Avena fatua), 14 Days After Application, read-out: Visual Growth Reduction (%) AVEFA
[15] = yellow nutsedge (Cyperus esculentus), 14 Days After Application, read-out: Visual Growth Reduction (%) CYPES
[16] = ALOMY: blackgrass (Alopecurus myosuroides), 14 days after application, read-out: Visual Growth Reduction (%) 14 Days After Application, ALOMY
[17] = AMARE: redroot pigweed (Amaranthus retroflexus), 14 days after application, read-out: Visual Growth Reduction (%) 14 Days After Application, AMARE
[18] = AVEFA: wild oat (Avena fatua), 14 days after application, read-out: Visual Growth Reduction (%) 14 Days After Application, AVEFA
[19] = CHEAL: lambsquarters (Chenopodium album), 14 days after application, read-out: Visual Growth Reduction (%) 14 Days After Application, CHEAL
[20] = CIRAR: canada thistle (Cirsium arvense), 14 days after application, read-out: Visual Growth Reduction (%) 14 Days After Application, CIRAR
[21] = CYPES: yellow nutsedge (Cyperus esculentus), 14 days after application, read-out: Visual Growth Reduction (%) 14 Days After Application, CYPES
[22] = DIGSA: crabgrass (Digitaria sanguinalis), 14 days after application, read-out: Visual Growth Reduction (%) 14 Days After Application, DIGSA

| Compound | pest or weed control at 140 g/ha [1] | pest or weed control at 140 g/ha [2] | pest or weed control at 140 g/ha [3] | pest or weed control at 140 g/ha [4] | pest or weed control at 140 g/ha [5] | pest or weed control at 140 g/ha [6] | pest or weed control at 140 g/ha [7] | pest or weed control at 140 g/ha [8] | pest or weed control at 140 g/ha [9] | pest or weed control at 140 g/ha [10] | pest or weed control at 140 g/ha [11] | pest or weed control at 140 g/ha [12] | pest or weed control at 140 g/ha [13] | pest or weed control at 140 g/ha [16] | pest or weed control at 140 g/ha [17] | pest or weed control at 140 g/ha [18] | pest or weed control at 140 g/ha [19] | pest or weed control at 140 g/ha [20] | pest or weed control at 140 g/ha [21] | pest or weed control at 140 g/ha [22] | also measured |
| --- | --- | --- | --- | --- | --- | --- | --- | --- | --- | --- | --- | --- | --- | --- | --- | --- | --- | --- | --- | --- | --- |
| COC(=O)c1nc(-c2ccc3c(c2F)OC(F)(F)O3)c(F)cc1Cl [F229, Methyl 3-chloro-5-fluoro-6-(2,2,4-trifluorobenzo[d][1,3]dioxol-5-yl)picolinate] | 85 to 94% | 95 to 100% | 95 to 100% | 0 to 29% | 85 to 94% | 95 to 100% | 45 to 59% | 85 to 94% | 85 to 94% | 95 to 100% | 95 to 100% | 95 to 100% | 95 to 100% |  |  |  |  |  |  |  | pest or weed control at 140 g/ha [14]: 95 to 100%; pest or weed control at 140 g/ha [15]: 45 to 59% |
| O=C(O)c1nc(-c2ncc(Cl)c(C(F)F)c2Cl)ccc1Cl [F193, 3′,5,5′-Trichloro-4′-(difluoromethyl)-[2,2′-bipyridine]-6-carboxylic acid] | 85 to 94% | 95 to 100% | 0 to 29% | 0 to 29% | 75 to 84% | 95 to 100% | 0 to 29% | 0 to 29% |  |  |  |  |  | 0 to 29% | 95 to 100% | 30 to 44% | 85 to 94% | 0 to 29% | 0 to 29% | 85 to 94% |  |
| O=C(OCc1cccnc1)c1nc(-c2ccc(C(F)(F)F)cc2Cl)ccc1Cl [F79, Pyridin-3-ylmethyl 3-chloro-6-(2-chloro-4-(trifluoromethyl)phenyl)picolinate] | 95 to 100% | 95 to 100% | 95 to 100% | 30 to 44% | 95 to 100% | 95 to 100% | 0 to 29% | 75 to 84% |  |  |  |  |  | 60 to 74% | 95 to 100% | 75 to 84% | 95 to 100% | 85 to 94% | 0 to 29% | 95 to 100% |  |
| COC(=O)c1nc(-c2ccc(Cl)c(C)c2Cl)ccc1Cl [F48, Methyl 3-chloro-6-(2,4-dichloro-3-methylphenyl) picolinate] | 0 to 29% |  | 45 to 59% | 0 to 29% | 0 to 29% | 0 to 29% | 0 to 29% | 0 to 29% |  |  |  |  |  | 0 to 29% | 60 to 74% | 0 to 29% | 95 to 100% | 0 to 29% | 0 to 29% | 0 to 29% |  |
| COC(=O)c1nc(-c2ccc3ccsc3c2F)c(F)cc1Cl [F266, Methyl 3-chloro-5-fluoro-6-(7-fluorobenzo[b]thiophen-6-yl)picolinate] | 0 to 29% | 0 to 29% | 0 to 29% | 0 to 29% | 0 to 29% | 0 to 29% | 0 to 29% | 0 to 29% | 0 to 29% | 0 to 29% | 0 to 29% | 0 to 29% | 0 to 29% |  |  |  |  |  |  |  | pest or weed control at 140 g/ha [14]: 0 to 29%; pest or weed control at 140 g/ha [15]: 0 to 29% |
